The results in this text go back to patent US11993598B2, “Compounds for inhibiting EGFR kinase, preparation methods and uses thereof” (WIGEN BIOMEDICINE TECHNOLOGY (SHANGHAI) CO., LTD., priority 2019, dated 2024).

Series [1] has as its target HER4 (Homo sapiens, UniProt Q15303). Kind of series: HER4 biochemical activity assay (HTRF). Here is the method: Assay 1: Wild-type EGFR, HER2 and HER4, and mutant EGFR biochemical activity assay
10 nL of Serially diluted compounds were transferred to assay plates using the labcyte Echo 550, and 5 uL of 2× enzymes in assay buffer were subsequently dispensed. The assay plate was covered with an adhesive plate seal, and briefly spinned for 30 s at 1000 g. 5 uL of 2× TK-substrate-biotin and ATP mixed in assay buffer were added.
IC50 was calculated and analyzed using a 4 parametric logistic model.

The test system of series [2] is tumor growth with EGFR exon 20 insertions and T790M mutations. Description: In vivo CDX and PDX mouse models, overall statement. The arrangement: species or system nude mice. Here is the method: Assay 3. In vivo studies in cell line-derived (CDX) and patient derived xenografts (PDX) mouse models
Cells (H1975) or tissue pieces (LU0493 and LU0426) were implanted subcutaneously into the left armpit of nude mice. When the average tumor volume reached 100-150 mm^3, mice were randomized by tumor volume and treated with vehicle, compound 1 or poziotinib respectively. Tumor volume and body weight were measured twice per week. Mice were sacrificed on day 21 or day 28, and tumor volume and terminal body weight were recorded. The relative tumor volume, percent of treatment/control values and tumor growth inhibition were calculated and statistics was performed.
Terminal body weight changes were calculated as percentage of body changes from day 1 to day 21.

For series [3], the target named is Ba/F3_EGFR V769_D770insASV (Homo sapiens, UniProt P00533, DUP767-769, cells depend on it). Kind of series: Cell proliferation assay (MTT). Format: cell-based. The following applies: three days, read-out: Ba/F3_EGFR V769_D770insASV IC50.
Chain of Ba/F3_EGFR V769_D770insASV (P00533 with tags, fused parts or gaps DUP767-769): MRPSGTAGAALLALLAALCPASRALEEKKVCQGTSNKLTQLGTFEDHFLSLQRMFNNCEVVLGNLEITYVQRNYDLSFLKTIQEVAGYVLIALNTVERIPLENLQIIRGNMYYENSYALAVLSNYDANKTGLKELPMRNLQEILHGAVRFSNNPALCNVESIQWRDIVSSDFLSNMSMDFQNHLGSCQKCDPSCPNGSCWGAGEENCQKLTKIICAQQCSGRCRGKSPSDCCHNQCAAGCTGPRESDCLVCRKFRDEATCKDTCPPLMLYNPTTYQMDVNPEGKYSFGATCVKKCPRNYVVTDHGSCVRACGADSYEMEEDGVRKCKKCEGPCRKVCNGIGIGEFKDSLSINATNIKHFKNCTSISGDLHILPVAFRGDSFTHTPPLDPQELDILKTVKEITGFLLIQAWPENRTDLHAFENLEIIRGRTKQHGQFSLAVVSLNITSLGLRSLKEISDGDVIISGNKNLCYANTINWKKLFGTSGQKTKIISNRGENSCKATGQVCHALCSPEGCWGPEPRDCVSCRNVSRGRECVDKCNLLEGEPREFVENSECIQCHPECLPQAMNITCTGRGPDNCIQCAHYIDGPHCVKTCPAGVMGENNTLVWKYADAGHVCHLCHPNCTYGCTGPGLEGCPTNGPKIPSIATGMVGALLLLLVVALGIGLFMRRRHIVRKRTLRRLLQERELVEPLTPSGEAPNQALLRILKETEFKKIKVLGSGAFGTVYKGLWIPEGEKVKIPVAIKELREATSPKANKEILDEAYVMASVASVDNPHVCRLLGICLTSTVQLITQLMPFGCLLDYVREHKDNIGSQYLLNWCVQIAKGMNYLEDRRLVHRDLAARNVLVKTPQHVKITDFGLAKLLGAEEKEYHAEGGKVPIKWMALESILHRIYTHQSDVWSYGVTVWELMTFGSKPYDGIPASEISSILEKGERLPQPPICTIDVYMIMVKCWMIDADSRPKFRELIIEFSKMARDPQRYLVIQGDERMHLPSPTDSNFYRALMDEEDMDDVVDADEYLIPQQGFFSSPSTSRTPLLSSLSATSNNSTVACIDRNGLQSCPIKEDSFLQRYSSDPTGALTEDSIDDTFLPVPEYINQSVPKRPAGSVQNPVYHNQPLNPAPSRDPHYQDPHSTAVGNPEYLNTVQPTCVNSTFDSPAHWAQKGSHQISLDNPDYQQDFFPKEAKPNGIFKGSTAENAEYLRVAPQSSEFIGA
For series [4], the target named is Ba/F3_EGFR D770_N771insSVD (Homo sapiens, UniProt P00533, DUP768-770, cells depend on it). Kind of series: Cell proliferation assay (MTT). Format: cell-based. The following applies: three days, read-out: Ba/F3_EGFR D770_N771insSVD IC50.
Chain of Ba/F3_EGFR D770_N771insSVD (P00533 with tags, fused parts or gaps DUP768-770): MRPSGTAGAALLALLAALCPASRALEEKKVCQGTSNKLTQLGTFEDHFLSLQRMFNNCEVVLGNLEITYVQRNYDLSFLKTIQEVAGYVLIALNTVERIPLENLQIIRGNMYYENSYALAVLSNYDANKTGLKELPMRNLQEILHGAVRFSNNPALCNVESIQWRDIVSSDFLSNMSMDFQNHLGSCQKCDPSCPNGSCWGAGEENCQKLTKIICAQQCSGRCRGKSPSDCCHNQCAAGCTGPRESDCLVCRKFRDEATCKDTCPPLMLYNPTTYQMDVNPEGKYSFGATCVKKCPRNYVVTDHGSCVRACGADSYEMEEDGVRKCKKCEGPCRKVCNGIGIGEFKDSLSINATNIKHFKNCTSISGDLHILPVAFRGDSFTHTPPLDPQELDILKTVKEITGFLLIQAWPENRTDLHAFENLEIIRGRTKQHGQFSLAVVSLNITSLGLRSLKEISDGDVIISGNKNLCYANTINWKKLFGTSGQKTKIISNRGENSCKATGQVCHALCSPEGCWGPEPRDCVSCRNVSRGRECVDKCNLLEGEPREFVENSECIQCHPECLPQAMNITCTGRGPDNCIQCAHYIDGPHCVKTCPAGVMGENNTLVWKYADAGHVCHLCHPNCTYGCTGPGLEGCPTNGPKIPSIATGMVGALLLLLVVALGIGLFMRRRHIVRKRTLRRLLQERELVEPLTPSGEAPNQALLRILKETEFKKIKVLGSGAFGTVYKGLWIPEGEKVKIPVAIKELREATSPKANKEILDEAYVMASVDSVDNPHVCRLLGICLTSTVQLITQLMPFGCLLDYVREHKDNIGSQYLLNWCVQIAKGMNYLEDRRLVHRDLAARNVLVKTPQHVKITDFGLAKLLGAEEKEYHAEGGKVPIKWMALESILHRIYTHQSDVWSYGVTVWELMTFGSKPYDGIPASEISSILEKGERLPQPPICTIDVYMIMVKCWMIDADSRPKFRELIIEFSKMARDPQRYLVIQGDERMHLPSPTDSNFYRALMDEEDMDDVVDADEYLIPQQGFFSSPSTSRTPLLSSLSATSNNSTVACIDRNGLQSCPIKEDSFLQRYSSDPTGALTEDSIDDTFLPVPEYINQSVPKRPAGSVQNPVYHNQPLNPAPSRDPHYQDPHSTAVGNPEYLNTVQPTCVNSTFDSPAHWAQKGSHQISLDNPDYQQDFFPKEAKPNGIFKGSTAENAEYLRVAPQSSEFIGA

Chain of HER4 (Q15303 26-1308): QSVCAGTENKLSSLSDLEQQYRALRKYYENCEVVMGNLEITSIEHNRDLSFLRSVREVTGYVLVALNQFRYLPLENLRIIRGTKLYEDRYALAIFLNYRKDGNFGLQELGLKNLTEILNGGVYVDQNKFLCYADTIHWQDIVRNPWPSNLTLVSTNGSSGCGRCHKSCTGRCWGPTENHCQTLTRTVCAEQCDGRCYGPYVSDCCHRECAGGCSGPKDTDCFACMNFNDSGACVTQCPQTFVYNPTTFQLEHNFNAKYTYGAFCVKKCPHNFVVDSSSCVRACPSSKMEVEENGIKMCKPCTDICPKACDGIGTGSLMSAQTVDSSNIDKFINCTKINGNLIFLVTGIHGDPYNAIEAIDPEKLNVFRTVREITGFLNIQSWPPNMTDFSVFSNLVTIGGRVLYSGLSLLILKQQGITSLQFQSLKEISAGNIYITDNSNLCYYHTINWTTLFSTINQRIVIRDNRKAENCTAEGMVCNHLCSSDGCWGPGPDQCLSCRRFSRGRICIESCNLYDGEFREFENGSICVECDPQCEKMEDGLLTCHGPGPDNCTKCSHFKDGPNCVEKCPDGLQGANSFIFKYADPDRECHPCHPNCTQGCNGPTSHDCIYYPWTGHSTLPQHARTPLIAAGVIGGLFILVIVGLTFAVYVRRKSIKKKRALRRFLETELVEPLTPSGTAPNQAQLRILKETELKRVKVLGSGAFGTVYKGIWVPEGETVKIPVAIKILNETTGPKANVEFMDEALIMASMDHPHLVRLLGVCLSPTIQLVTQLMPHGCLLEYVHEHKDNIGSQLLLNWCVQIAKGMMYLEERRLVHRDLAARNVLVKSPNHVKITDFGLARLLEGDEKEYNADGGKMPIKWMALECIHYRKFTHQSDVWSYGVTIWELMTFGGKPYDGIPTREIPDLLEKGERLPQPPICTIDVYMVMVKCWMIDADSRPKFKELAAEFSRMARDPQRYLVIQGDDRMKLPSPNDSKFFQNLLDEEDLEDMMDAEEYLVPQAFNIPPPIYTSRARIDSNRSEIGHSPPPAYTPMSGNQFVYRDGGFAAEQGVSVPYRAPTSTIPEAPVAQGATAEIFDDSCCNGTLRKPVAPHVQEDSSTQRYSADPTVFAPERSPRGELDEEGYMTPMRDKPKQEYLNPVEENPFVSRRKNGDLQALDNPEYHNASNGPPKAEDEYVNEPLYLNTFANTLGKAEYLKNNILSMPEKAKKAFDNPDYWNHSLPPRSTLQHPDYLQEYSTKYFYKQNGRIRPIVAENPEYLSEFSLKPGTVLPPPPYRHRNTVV

In the case of `C=CC(=O)Nc1cc(Nc2nccc(-n3c(=O)n4c5c(cc(F)cc53)CCC4)n2)c(OC)cc1N(C)CCN(C)C` [Compound 1, N-(2-((2-(dimethylamino)ethyl)(methyl)amino)-5-((4-(8-fluoro-2-oxo-5,6-dihydro-4H-imidazo[4,5,1-ij]quinolin-1(2H)-yl)pyrimidin-2-yl)amino)-4-methoxyphenyl)acrylamide], the IC50 in series [1] was 0.769 nM. Moreover, the “impact on body weight compared to poziotinib, in words” value in series [2] is given as “less impacts on body weight”. The GI50 came to 20.2 nM in series [3] and 7.06 nM in series [4].
